{"source": "patent US20140147856A1", "about": "“Intestinal Permeability Assay for Neurodegenerative Diseases” (Rush University Medical Center, priority 2012, published 2014)", "assay": "Oral sugar intestinal permeability assay (urinary sugar excretion by gas chromatography)", "type": "in vivo, human", "conditions": "oral sugar mixture with 1 gram sucralose after overnight fast, 24 h urine", "source_text": "In an example of a protocol used to validate the instant invention, patients with clinically diagnosed PD not yet requiring dopaminergic therapy were recruited under a clinical protocol (FIG. 1 and Table 1). […] Constipation was defined as fewer than 3 bowel movements per week or if the subject complained of constipation. Men and women who met United Kingdom Parkinson Disease Research Society brain bank criteria for PD, Hoehn & Yahr stage 1-2.5 were included. Subjects were excluded based on the following: atypical or secondary Parkinsonism, any known organic gastrointestinal disease, use of drugs affecting gastrointestinal motility, anti-inflammatory agents, and chronic diuretic use. Control subjects were of similar age and gender that had no GI or neurological symptoms or signs (determined by examination by a board certified neurologist with expertise in movement disorders) and were not taking regular medication or anti-inflammatory agents.\nSubjects fasted overnight and subsequently ingested a sugar mixture containing 2 grams mannitol, 7.5 grams lactulose, 40 grams sucrose, and 1 gram sucralose at 6 AM, then collected 2 sequential 12-hour urine samples. Urine was analyzed for sugar content using gas chromatography (GC) techniques as described herein. […] The final residue is dissolved in 0.5 ml acetone and the sample is ready for analysis. […]"}
{"smiles": "OC[C@H]1O[C@H](O[C@]2(CCl)O[C@H](CCl)[C@@H](O)[C@@H]2O)[C@H](O)[C@@H](O)[C@H]1Cl", "note": "[sucralose]", "values": [{"measurement": "mean 24 h urinary sucralose (marker of total intestinal permeability)", "setting": "PD subjects", "value": "1.12±0.1% of oral dose"}, {"measurement": "mean 24 h urinary sucralose (marker of total intestinal permeability)", "setting": "age matched controls", "value": "0.58±0.1% of oral dose"}]}
